Test results published in patent publication US20090123555A1, “Stimulateable Polymer Particles Exhibiting Reactive Functions, Method for the Production and the Use Thereof” (CENTRE NATIONAL DE LA RECHER CHE SCIENTIFIQUE, priority 2004, published 2009).

Assay: Release of the active ingredient from the particle by lowering of the pH, followed by UV-visible spectrometry
Format: physicochemical
Excerpt: Once the particle was synthesised we verified by UV-visible spectrometry the possibility of releasing the medicament by simple lowering of the pH.

## COc1ccc2c(c1)c(CC(=O)O)c(C)n2C(=O)c1ccc(Cl)cc1 [indomethacin]
Lowering of the pH, release from the particle
  release of the medicament by simple lowering of the pH: progressive and controlled release
pH equal to 3, in 48 hours, indomethacin covalently bonded inside the particle (NB-PCL-POE-OMe stabilised latex)
  indomethacin salted out (released) from the particle: more than 85%
